# In PubChem BioAssay AID2060491 (Molecular Pharmacology Branch, DTP, NCI, 2025):
# Test system: 857933-349-R-J2-PDC complex spheroids, viability
# Test: Anticancer human tumor 857933-349-R-J2-PDC patient-derived colon adenocarcinoma cell line growth inhibition [GQUAD]
# Conditions: for IC50: curve of first compound; for viability, T/C: stronger effect = lower value
# Procedure, shortened: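 Tumor cells were grown as complex spheroids with HUVEC endothelial cells and mesenchymal stem cells as stroma. G-quadruplex stabilizers were combined with targeted agents over half-log dilutions from near the clinical Cmax, or from 10 microM.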
# [1] = second compound 0.0316 µM, first compound 0.000999 µM
# [2] = second compound 0.0316 µM, first compound 0.00316 µM
# [3] = second compound 0.0316 µM, first compound 0.00999 µM
# [4] = second compound 0.0316 µM, first compound 0.0316 µM
# [5] = second compound 0.0316 µM, first compound 0.0999 µM
# [6] = second compound 0.0316 µM, first compound 0.316 µM
# [7] = second compound 0.1 µM, first compound 0.000999 µM
# [8] = second compound 0.1 µM, first compound 0.00316 µM
# [9] = second compound 0.1 µM, first compound 0.00999 µM
# [10] = second compound 0.1 µM, first compound 0.0316 µM
# [11] = second compound 0.1 µM, first compound 0.0999 µM
# [12] = second compound 0.1 µM, first compound 0.316 µM
# [13] = second compound 0.316 µM, first compound 0.000999 µM
# [14] = second compound 0.316 µM, first compound 0.00316 µM
# [15] = second compound 0.316 µM, first compound 0.00999 µM
# [16] = second compound 0.316 µM, first compound 0.0316 µM
# [17] = second compound 0.316 µM, first compound 0.0999 µM
# [18] = second compound 0.316 µM, first compound 0.316 µM
# [19] = second compound 1 µM, first compound 0.000999 µM
# [20] = second compound 1 µM, first compound 0.00316 µM
# [21] = second compound 1 µM, first compound 0.00999 µM
# [22] = second compound 1 µM, first compound 0.0316 µM
# [23] = second compound 1 µM, first compound 0.0999 µM
# [24] = second compound 1 µM, first compound 0.316 µM
# [25] = second compound 3.16 µM, first compound 0.000999 µM
# [26] = second compound 3.16 µM, first compound 0.00316 µM
# [27] = second compound 3.16 µM, first compound 0.00999 µM
# [28] = second compound 3.16 µM, first compound 0.0316 µM
# [29] = second compound 3.16 µM, first compound 0.0999 µM
# [30] = second compound 3.16 µM, first compound 0.316 µM
# [31] = second compound 10 µM, first compound 0.000999 µM
# [32] = second compound 10 µM, first compound 0.00316 µM
# [33] = second compound 10 µM, first compound 0.00999 µM
# [34] = second compound 10 µM, first compound 0.0316 µM
# [35] = second compound 10 µM, first compound 0.0999 µM
# [36] = second compound 10 µM, first compound 0.316 µM
# 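Note: spheroids exposed to compounds for one week before readout.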
# 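Throughout, for viability, T/C: percent viability relative to vehicle DMSO wells taken as 100%.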
smiles,measurement,setting,value
CCc1c2c(nc3ccc(O)cc13)-c1cc3c(c(=O)n1C2)COC(=O)[C@]3(O)CC + Cc1[nH]c2ccc(F)cc2c1-c1nc2c3cccnc3c3ncccc3c2[nH]1,IC50,second compound 0.0316 µM,8.64 nM
same,IC50,second compound 0.1 µM,5.42 nM
same,IC50,second compound 0.316 µM,9.75 nM
same,IC50,second compound 1 µM,8.5 nM
same,IC50,second compound 3.16 µM,9.46 nM
same,IC50,second compound 10 µM,8.53 nM
same,"viability, T/C",[1],79.3%
same,"viability, T/C",[2],63%
same,"viability, T/C",[3],51.5%
same,"viability, T/C",[4],24.8%
same,"viability, T/C",[5],14.7%
same,"viability, T/C",[6],12.2%
same,"viability, T/C",[7],80.2%
same,"viability, T/C",[8],54.5%
same,"viability, T/C",[9],45.5%
same,"viability, T/C",[10],26.5%
same,"viability, T/C",[11],15.3%
same,"viability, T/C",[12],11.1%
same,"viability, T/C",[13],73.5%
same,"viability, T/C",[14],72.6%
same,"viability, T/C",[15],47.9%
same,"viability, T/C",[16],25%
same,"viability, T/C",[17],15.4%
same,"viability, T/C",[18],11.4%
same,"viability, T/C",[19],74.8%
same,"viability, T/C",[20],63.2%
same,"viability, T/C",[21],49.8%
same,"viability, T/C",[22],24.4%
same,"viability, T/C",[23],16.6%
same,"viability, T/C",[24],14.7%
same,"viability, T/C",[25],80.5%
same,"viability, T/C",[26],60.1%
same,"viability, T/C",[27],55.9%
same,"viability, T/C",[28],27.4%
same,"viability, T/C",[29],15.7%
same,"viability, T/C",[30],13%
same,"viability, T/C",[31],80.7%
same,"viability, T/C",[32],54.5%
same,"viability, T/C",[33],59.2%
same,"viability, T/C",[34],28.1%
same,"viability, T/C",[35],18.7%
same,"viability, T/C",[36],14.6%
COc1cccc2c1C(=O)c1c(O)c3c(c(O)c1C2=O)CC(O)(C(=O)CO)CC3OC1CC(N)C(O)C(C)O1 (stereo unspecified) + Cc1[nH]c2ccc(F)cc2c1-c1nc2c3cccnc3c3ncccc3c2[nH]1,IC50,second compound 0.0316 µM,444 nM
same,IC50,second compound 0.1 µM,721 nM
same,IC50,second compound 0.316 µM,965 nM
same,IC50,second compound 1 µM,839 nM
same,IC50,second compound 3.16 µM,572 nM
same,IC50,second compound 10 µM,505 nM
same,"viability, T/C",[4],90.5%
same,"viability, T/C","second compound 0.0316 µM, first compound 0.1 µM",66%
same,"viability, T/C",[6],59.2%
same,"viability, T/C","second compound 0.0316 µM, first compound 1 µM",41.6%
same,"viability, T/C","second compound 0.0316 µM, first compound 3.16 µM",5.07%
same,"viability, T/C","second compound 0.0316 µM, first compound 10 µM",0.26%
same,"viability, T/C",[10],81.5%
same,"viability, T/C","second compound 0.1 µM, first compound 0.1 µM",63.5%
same,"viability, T/C",[12],59.7%
same,"viability, T/C","second compound 0.1 µM, first compound 1 µM",49.2%
same,"viability, T/C","second compound 0.1 µM, first compound 3.16 µM",7.76%
same,"viability, T/C","second compound 0.1 µM, first compound 10 µM",0.17%
same,"viability, T/C",[16],74.2%
same,"viability, T/C","second compound 0.316 µM, first compound 0.1 µM",66.8%
same,"viability, T/C",[18],56.4%
same,"viability, T/C","second compound 0.316 µM, first compound 1 µM",51%
same,"viability, T/C","second compound 0.316 µM, first compound 3.16 µM",5.84%
same,"viability, T/C","second compound 0.316 µM, first compound 10 µM",0.2%
same,"viability, T/C",[22],79.9%
same,"viability, T/C","second compound 1 µM, first compound 0.1 µM",62.5%
same,"viability, T/C",[24],61.9%
same,"viability, T/C","second compound 1 µM, first compound 1 µM",48.6%
same,"viability, T/C","second compound 1 µM, first compound 3.16 µM",5.97%
same,"viability, T/C","second compound 1 µM, first compound 10 µM",0.21%
same,"viability, T/C",[28],79.4%
same,"viability, T/C","second compound 3.16 µM, first compound 0.1 µM",65.7%
same,"viability, T/C",[30],59.4%
same,"viability, T/C","second compound 3.16 µM, first compound 1 µM",43.6%
same,"viability, T/C","second compound 3.16 µM, first compound 3.16 µM",6.19%
same,"viability, T/C","second compound 3.16 µM, first compound 10 µM",0.26%
same,"viability, T/C",[34],93%
same,"viability, T/C","second compound 10 µM, first compound 0.1 µM",74.5%
same,"viability, T/C",[36],58.5%
same,"viability, T/C","second compound 10 µM, first compound 1 µM",43.7%
same,"viability, T/C","second compound 10 µM, first compound 3.16 µM",5.74%
same,"viability, T/C","second compound 10 µM, first compound 10 µM",0.29%
CC[C@@]1(O)C(=O)OCc2c1cc1n(c2=O)Cc2cc3c(CN(C)C)c(O)ccc3nc2-1 + CN(C)c1ccc(Nc2c3ccc(NC(=O)CCN4CCCC4)cc3nc3cc(NC(=O)CCN4CCCC4)ccc23)cc1,IC50,second compound 0.0316 µM,262 nM
same,IC50,second compound 0.1 µM,272 nM
same,IC50,second compound 0.316 µM,277 nM
same,IC50,second compound 1 µM,296 nM
same,IC50,second compound 3.16 µM,> 316 nM
same,IC50,second compound 10 µM,> 316 nM
same,"viability, T/C",[1],101%
same,"viability, T/C",[2],103%
same,"viability, T/C",[3],101%
same,"viability, T/C",[4],98.2%
same,"viability, T/C",[5],67%
same,"viability, T/C",[6],46.7%
same,"viability, T/C",[7],105%
same,"viability, T/C",[8],109%
same,"viability, T/C",[9],95.3%
same,"viability, T/C",[10],97.7%
same,"viability, T/C",[11],70.5%
same,"viability, T/C",[12],47%
same,"viability, T/C",[13],108%
same,"viability, T/C",[14],101%
same,"viability, T/C",[15],98.7%
same,"viability, T/C",[16],89.6%
same,"viability, T/C",[17],80.7%
same,"viability, T/C",[18],45.1%
same,"viability, T/C",[19],99.7%
same,"viability, T/C",[20],99.1%
same,"viability, T/C",[21],95.9%
same,"viability, T/C",[22],88.5%
same,"viability, T/C",[23],77.1%
same,"viability, T/C",[24],48%
same,"viability, T/C",[25],94.2%
same,"viability, T/C",[26],77.4%
same,"viability, T/C",[27],84.7%
same,"viability, T/C",[28],76.1%
same,"viability, T/C",[29],77.8%
same,"viability, T/C",[30],54.5%
same,"viability, T/C",[31],72.3%
same,"viability, T/C",[32],76.8%
same,"viability, T/C",[33],69.5%
same,"viability, T/C",[34],69.9%
same,"viability, T/C",[35],68.7%
same,"viability, T/C",[36],59%
